This is an account of results in US9422285B2, “Substituted pyrazolo[1,5-A]-pyridine-3-carboxamides and use thereof” (Bayer Pharma Aktiengesellschaft, priority 2014, dated 2016).

The assay addresses T1, recombinant guanylate cyclase reporter cell line (Rattus norvegicus, UniProt P19686+P20595).
T1 construct: expressed in transfected cells
T1 sequence (P19686 1-690): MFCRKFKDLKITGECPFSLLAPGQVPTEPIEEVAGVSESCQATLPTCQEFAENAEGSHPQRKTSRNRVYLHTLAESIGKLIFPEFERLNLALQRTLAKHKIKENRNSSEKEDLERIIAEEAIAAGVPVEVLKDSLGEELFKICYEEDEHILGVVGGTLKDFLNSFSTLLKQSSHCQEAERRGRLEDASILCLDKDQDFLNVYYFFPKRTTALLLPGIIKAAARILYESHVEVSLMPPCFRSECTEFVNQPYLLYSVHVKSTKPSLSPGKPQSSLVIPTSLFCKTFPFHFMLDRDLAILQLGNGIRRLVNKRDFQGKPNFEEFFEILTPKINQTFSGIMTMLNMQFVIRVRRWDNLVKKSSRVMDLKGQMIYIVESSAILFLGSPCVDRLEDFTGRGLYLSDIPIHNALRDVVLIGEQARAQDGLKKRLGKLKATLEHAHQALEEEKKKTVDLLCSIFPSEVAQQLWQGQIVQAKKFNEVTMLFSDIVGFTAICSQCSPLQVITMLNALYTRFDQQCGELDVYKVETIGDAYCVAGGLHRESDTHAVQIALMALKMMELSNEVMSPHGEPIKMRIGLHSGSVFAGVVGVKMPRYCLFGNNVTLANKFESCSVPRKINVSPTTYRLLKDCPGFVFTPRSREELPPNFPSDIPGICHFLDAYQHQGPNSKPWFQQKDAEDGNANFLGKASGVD
T1 sequence (P20595 1-619): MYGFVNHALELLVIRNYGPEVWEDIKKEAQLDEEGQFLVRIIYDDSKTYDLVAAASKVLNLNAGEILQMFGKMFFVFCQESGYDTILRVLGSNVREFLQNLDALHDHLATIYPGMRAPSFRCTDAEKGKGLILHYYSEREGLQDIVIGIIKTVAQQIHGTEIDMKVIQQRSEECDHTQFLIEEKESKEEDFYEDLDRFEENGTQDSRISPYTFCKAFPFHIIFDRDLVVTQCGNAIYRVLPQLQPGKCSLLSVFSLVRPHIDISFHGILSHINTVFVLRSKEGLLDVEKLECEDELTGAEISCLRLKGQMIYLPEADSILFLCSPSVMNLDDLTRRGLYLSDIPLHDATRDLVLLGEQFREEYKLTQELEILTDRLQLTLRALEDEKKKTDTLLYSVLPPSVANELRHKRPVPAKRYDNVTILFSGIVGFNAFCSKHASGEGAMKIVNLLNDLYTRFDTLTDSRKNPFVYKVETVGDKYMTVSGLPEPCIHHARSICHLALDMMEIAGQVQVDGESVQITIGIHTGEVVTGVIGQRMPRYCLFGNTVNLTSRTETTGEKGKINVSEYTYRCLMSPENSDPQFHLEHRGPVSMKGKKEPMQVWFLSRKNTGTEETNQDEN
Kind of assay: Effect on a recombinant guanylate cyclase reporter cell line (B-2). The assay is classed as cell-based. As to conditions: in some cases mean values for individual determinations. Here is the method:
B-2. Effect on a Recombinant Guanylate Cyclase Reporter Cell Line
The cellular effect of the inventive compounds is determined using a recombinant guanylate cyclase reporter cell line, as described in F. Wunder et al., Anal. Biochem. 339, 104-112 (2005).
Representative MEC values (MEC=minimum effective concentration) for the inventive compounds are shown in the table below (in some cases as mean values for individual determinations): […]

Turning to `Cc1cc(OCc2c(F)ccc(F)c2F)n2nc(C)c(C(=O)N[C@@H](CO)C(=O)Nc3ccc4ccccc4c3)c2c1` [Example 7, N-[(2S)-3-Hydroxy-1-(2-naphthylamino)-1-oxopropan-2-yl]-2,5-dimethyl-7-[(2,3,6-trifluorobenzyl)oxy]pyrazolo[1,5-a]pyridine-3-carboxamide], the “MEC (minimum effective concentration)” value was found to be 1.0 µM.
As to `Cc1cc(OCc2c(F)cccc2F)n2nc(C)c(C(=O)NC3CCC(N)C3)c2c1` (racemic) [Example 130, rac-N-(3-Aminocyclopentyl)-7-[(2,6-difluorobenzyl)oxy]-2,5-dimethylpyrazolo[1,5-a]pyridine-3-carboxamide], the “MEC (minimum effective concentration)” value was 3.0 µM.
The same measure for `CCCC(C)(N)CNC(=O)c1c(C)nn2c(OCCC(C)C)cc(C)cc12` (racemic) [Example 160, rac-N-(2-Amino-2-methylpentyl)-2,5-dimethyl-7-(3-methylbutoxy)pyrazolo[1,5-a]pyridine-3-carboxamide]: 3.0 µM; for `Cc1cc(OCc2c(F)ccc(F)c2F)n2nc(C)c(C(=O)NC(CCC(F)(F)C(F)(F)F)C(C)(C)O)c2c1` (single isomer, unassigned; ent-2) [Example 22, ent-2,5-Dimethyl-N-(6,6,7,7,7-pentafluoro-2-hydroxy-2-methylheptan-3-yl)-7-[(2,3,6-trifluorobenzyl)oxy]pyrazolo[1,5-a]pyridine-3-carboxamide]: 0.1 µM; for `CCCC(C)(N)CNC(=O)c1c(C)nn2c(OCc3c(F)cccc3F)cccc12` (racemic) [Example 163, rac-N-(2-Amino-2-methylpentyl)-7-[(2,6-difluorobenzyl)oxy]-2-methylpyrazolo[1,5-a]pyridine-3-carboxamide]: 3.0 µM.
To `Cc1cc(OCc2c(F)cccc2F)n2nc(C)c(C(=O)NCC3CCC(=O)N3)c2c1` (racemic) [Example 95, rac-7-[(2,6-Difluorobenzyl)oxy]-2,5-dimethyl-N-[(5-oxopyrrolidin-2-yl)methyl]pyrazolo[1,5-a]pyridine-3-carboxamide] belongs 10 µM; to `Cc1cc(OCc2c(F)cccc2F)n2nc(C)c(C(=O)NC[C@@H]3CCCCN3)c2c1` [Example 129, 7-[(2,6-Difluorobenzyl)oxy]-2,5-dimethyl-N-[(2S)-piperidin-2-ylmethyl]pyrazolo[1,5-a]pyridine-3-carboxamide], 3.0 µM; to `Cc1cc(OCc2c(F)cccc2F)n2nc(C)c(C(=O)NC3CCC(C)(C)c4ccccc43)c2c1` (racemic) [Example 145, rac-7-[(2,6-Difluorobenzyl)oxy]-N-(4,4-dimethyl-1,2,3,4-tetrahydronaphthalen-1-yl)-2,5-dimethylpyrazolo[1,5-a]pyridine-3-carboxamide], 1.0 µM.
`Cc1cc(OCc2c(F)cccc2F)n2nc(C)c(C(=O)NCCC(C)(C)N)c2c1` [Example 121, N-(3-Amino-3-methylbutyl)-7-[(2,6-difluorobenzyl)oxy]-2,5-dimethylpyrazolo[1,5-a]pyridine-3-carboxamide]: the “MEC (minimum effective concentration)” value came to 10 µM.
The same measure for `Cc1cc(OCc2c(F)cccc2F)n2nc(C)c(C(=O)NCC(C)(N)CCF)c2c1` (single isomer, unassigned) [Example 50, ent-N-(2-Amino-4-fluoro-2-methylbutyl)-7-[(2,6-difluorobenzyl)oxy]-2,5-dimethylpyrazolo[1,5-a]pyridine-3-carboxamide]: 0.3 µM; for `Cc1cc(OCc2c(F)cccc2F)n2nc(C)c(C(=O)NC3CCCCNC3)c2c1` (racemic) [Example 127, rac-N-(Azepan-3-yl)-7-[(2,6-difluorobenzyl)oxy]-2,5-dimethylpyrazolo[1,5-a]pyridine-3-carboxamide]: 0.3 µM.
To `Cc1cc(OCc2c(F)cccc2F)n2nc(C3CC3)c(C(=O)NCC(C)(N)CC(F)F)c2c1` (single isomer, unassigned) [Example 56, ent-N-(2-Amino-4,4-difluoro-2-methylbutyl)-2-cyclopropyl-7-[(2,6-difluorobenzyl)oxy]-5-methylpyrazolo[1,5-a]pyridine-3-carboxamide] belongs 0.3 µM; to `Cc1cc(OCc2c(F)ccc(F)c2F)n2nc(C)c(C(=O)NCCN(C)C)c2c1` [Example 12, N-[2-(Dimethylamino)ethyl]-2,5-dimethyl-7-[(2,3,6-trifluorobenzyl)oxy]pyrazolo[1,5-a]pyridine-3-carboxamide], 3.0 µM.
The same measure for `CCCC(C)(N)CNC(=O)c1c(C)nn2c(OCc3c(F)ccc(F)c3F)cc(C)cc12` (single isomer, unassigned) [Example 4, ent-N-(2-Amino-2-methylpentyl)-2,5-dimethyl-7-[(2,3,6-trifluorobenzyl)oxy]pyrazolo[1,5-a]pyridine-3-carboxamide]: 0.2 µM.
On to `Cc1cc(OCc2c(F)cccc2F)n2nc(C)c(C(=O)NCC(N)C#N)c2c1` (racemic) [Example 59, rac-N-(2-Amino-2-cyanoethyl)-7-[(2,6-difluorobenzyl)oxy]-2,5-dimethylpyrazolo[1,5-a]pyridine-3-carboxamide], for which the “MEC (minimum effective concentration)” value is 3.0 µM.
Consider `Cc1cc(OCc2c(F)ccc(F)c2F)n2nc(C)c(C(=O)NCC3(O)CC3)c2c1` [Example 25, N-[(1-Hydroxycyclopropyl)methyl]-2,5-dimethyl-7-[(2,3,6-trifluorobenzyl)oxy]pyrazolo[1,5-a]pyridine-3-carboxamide], for which the “MEC (minimum effective concentration)” value is 0.3 µM.
To `COc1ccc2c(c1)C(NC(=O)c1c(C)nn3c(OCc4c(F)cccc4F)cc(C)cc13)CCC2` (racemic) [Example 146, rac-7-[(2,6-Difluorobenzyl)oxy]-N-(7-methoxy-1,2,3,4-tetrahydronaphthalen-1-yl)-2,5-dimethylpyrazolo[1,5-a]pyridine-3-carboxamide] belongs 1.0 µM; to `Cc1cc(OCc2c(F)ccc(F)c2F)n2nc(C)c(C(=O)N[C@H]3CCOC3=O)c2c1` [Example 27, 2,5-Dimethyl-N-[(3S)-2-oxotetrahydrofuran-3-yl]-7-[(2,3,6-trifluorobenzyl)oxy]pyrazolo[1,5-a]pyridine-3-carboxamide], 0.3 µM.
To `Cc1cc(OCc2c(F)cccc2F)n2nc(C)c(C(=O)N[C@@H](CO)c3cccs3)c2c1` [Example 176, 7-[(2,6-Difluorobenzyl)oxy]-N-[(1S)-2-hydroxy-1-(2-thienyl)ethyl]-2,5-dimethylpyrazolo[1,5-a]pyridine-3-carboxamide] belongs 0.3 µM; to `Cc1cc(OCc2c(F)ccc(F)c2F)n2nc(C)c(C(=O)Nc3cnn(CC(F)(F)F)c3)c2c1` [Example 17, 2,5-Dimethyl-7-[(2,3,6-trifluorobenzyl)oxy]-N-[1-(2,2,2-trifluoroethyl)-1H-pyrazol-4-yl]pyrazolo[1,5-a]pyridine-3-carboxamide], 0.3 µM.
To `Cc1cc(OCc2c(F)cccc2F)n2nc(C)c(C(=O)NC(CN)c3ccc(F)c(F)c3)c2c1` (stereo not drawn) [Example 133, ent-N-[2-Amino-1-(3,4-difluorophenyl)ethyl]-7-[(2,6-difluorobenzyl)oxy]-2,5-dimethylpyrazolo[1,5-a]pyridine-3-carboxamide] belongs 0.3 µM.
As to `CCCc1nn2c(OCc3c(F)cccc3F)cc(C)cc2c1C(=O)NCC(C)(N)CCC` (single isomer, unassigned) [Example 51, ent-N-(2-Amino-2-methylpentyl)-7-[(2,6-difluorobenzyl)oxy]-5-methyl-2-propylpyrazolo[1,5-a]pyridine-3-carboxamide], the “MEC (minimum effective concentration)” value came out at 1.0 µM.
